The values below come from patent US20240132485A1, “HETEROCYCLIC CULLIN RING UBIQUITIN LIGASE COMPOUNDS AND USES THEREOF” (CEMM - FORSCHUNGSZENTRUM FÜR MOLEKULARE MEDIZIN GMBH, priority 2020, published 2024).

Some results are limits rather than exact numbers.

Data set [1] concerns the target Nanoluc_DDB1 (N-terminal Nanoluc luciferase, G4S linker, DDB1 (FL)) (UniProt Q16531). The data set is described as follows: NanoBRET in HEK293T cells, 10 µM compound Example 3-48; class B = 3-4 fold increase. In general terms: BRET reads energy transfer from a luciferase to a nearby fluorophore.
In a further data set the test system is KBM7_WT cells. As to the kind of experiment: Cell viability assay (CellTiter Glo), KBM7 wild-type, 3-day treatment. The data set is classed as cell-based. Conditions: Homo sapiens, KBM-7, 72 h, read-out: LC50 KBM7_WT. The protocol: (§1) KBM7^WT, UBE2M and CUL4B mutant KBM7 clones (UBE2M^mut and CUL4B^mut) were seeded at a cell density of 50,000 cells/mL in 96-well with DMSO or degraders Z1 to Z3, Z5 to Z7, Z9 to Z11, Z13 and Z14 in triplicates. Cells were treated for 3 days, after which a cell viability assay was performed (CellTiter Glo, Promega), according to manufacturer's protocol. Survival curves and IC50 values (LC50 values) were calculated by best-fit analysis of the log 10 drug concentration to fold change of drug-treated cells over DMSO-treated cells. All survival assays included technical triplicates per sample, per experiment.
(§2) Compounds, Z1 to Z3, Z5 to Z7, Z9 to Z11, Z13 and Z14, were tested for their antiproliferative effects in human leukemia cells (KBM7). These cells were either transduced with a control sgRNA (KBM7_WT), or with an sgRNA targeting UBE2M or CUL4B, leading to a hypomorph (deletion of six amino acids) with a functional impairment (UBE2M_MUT).
(§3) Indeed, 11 compounds Z1 to Z3, Z5 to Z7, Z9 to Z11, Z13 and Z14 were identified to fulfill these criteria and to stand out in terms of fold-change significance; see, e.g., FIG. 1 and Table 1. The dose ranging differential effect of these hits was assessed/validated, comparing their activity in KBM7_WT (KBM7^WT) vs UBE2_MUT and CUL4B_MUT cells (UBE2M^mut and CUL4B^mut).
For orientation: Cellular ATP, detected with luciferase, serves as a proxy for viable cell number.

Another data set has as its system UBE2M_MUT KBM7 cells. The data set is described as follows: Cell viability assay (CellTiter Glo), UBE2M mutant KBM7 clone, 3-day treatment. The format is cell-based. Conditions: Homo sapiens, KBM-7, 72 h, UBE2M mutant KBM7, 3-day treatment, read-out: LC50 UBE2M_MUT. The protocol:
as §1, §2, §3

The test system of a further data set is CUL4B_MUT KBM7 cells. The data set is described as follows: Cell viability assay (CellTiter Glo), CUL4B mutant KBM7 clone, 3-day treatment. The format is cell-based. Conditions: Homo sapiens, KBM-7, 72 h, CUL4B mutant KBM7, 3-day treatment, read-out: LC50 CUL4B_MUT. How it is done:
as §1, §2, §3

The target of data set [2] is T1, DDB1-CDK12/Cyclin K ternary complex (Homo sapiens, UniProt Q16531+Q9NYV4).
T1 construct: expressed in transfected cells; host or cells: HEK293T wildtype cells, transient PEI transfection
T1 sequence (Q9NYV4 whole entry): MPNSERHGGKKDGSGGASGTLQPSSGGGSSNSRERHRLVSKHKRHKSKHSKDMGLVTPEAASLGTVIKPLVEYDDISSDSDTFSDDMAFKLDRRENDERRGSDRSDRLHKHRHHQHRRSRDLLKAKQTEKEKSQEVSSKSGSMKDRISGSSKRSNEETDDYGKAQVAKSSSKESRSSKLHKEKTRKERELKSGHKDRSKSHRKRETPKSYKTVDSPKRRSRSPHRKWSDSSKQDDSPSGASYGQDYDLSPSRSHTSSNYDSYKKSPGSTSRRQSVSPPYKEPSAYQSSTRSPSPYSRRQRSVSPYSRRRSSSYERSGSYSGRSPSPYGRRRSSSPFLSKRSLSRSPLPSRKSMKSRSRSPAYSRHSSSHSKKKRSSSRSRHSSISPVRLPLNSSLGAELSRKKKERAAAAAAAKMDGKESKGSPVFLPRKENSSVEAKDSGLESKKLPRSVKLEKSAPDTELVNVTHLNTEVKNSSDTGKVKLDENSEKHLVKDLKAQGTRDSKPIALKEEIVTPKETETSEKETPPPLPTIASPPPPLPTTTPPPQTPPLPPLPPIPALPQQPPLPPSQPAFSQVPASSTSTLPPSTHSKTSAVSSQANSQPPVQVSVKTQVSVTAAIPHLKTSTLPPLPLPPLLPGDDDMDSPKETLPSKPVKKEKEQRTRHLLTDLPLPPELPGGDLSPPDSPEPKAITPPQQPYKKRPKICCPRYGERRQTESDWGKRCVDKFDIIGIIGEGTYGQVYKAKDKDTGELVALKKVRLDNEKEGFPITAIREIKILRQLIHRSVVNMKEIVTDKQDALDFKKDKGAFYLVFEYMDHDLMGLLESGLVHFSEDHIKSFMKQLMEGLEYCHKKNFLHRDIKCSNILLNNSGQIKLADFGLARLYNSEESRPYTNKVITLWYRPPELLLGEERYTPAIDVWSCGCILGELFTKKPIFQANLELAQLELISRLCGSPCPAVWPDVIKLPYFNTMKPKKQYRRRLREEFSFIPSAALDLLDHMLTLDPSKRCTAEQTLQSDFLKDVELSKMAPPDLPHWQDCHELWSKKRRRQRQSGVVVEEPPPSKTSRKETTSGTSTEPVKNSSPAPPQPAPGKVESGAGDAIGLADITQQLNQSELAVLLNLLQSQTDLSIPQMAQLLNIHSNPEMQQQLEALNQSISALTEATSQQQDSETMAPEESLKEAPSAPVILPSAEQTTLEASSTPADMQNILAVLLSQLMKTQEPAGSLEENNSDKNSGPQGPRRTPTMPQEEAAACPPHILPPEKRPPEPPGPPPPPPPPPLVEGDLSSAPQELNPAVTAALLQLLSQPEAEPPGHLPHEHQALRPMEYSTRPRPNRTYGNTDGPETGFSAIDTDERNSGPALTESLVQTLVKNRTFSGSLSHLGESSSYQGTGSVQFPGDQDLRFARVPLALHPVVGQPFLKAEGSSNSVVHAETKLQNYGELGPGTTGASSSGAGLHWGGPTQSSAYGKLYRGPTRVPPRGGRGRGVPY
T1 sequence (Q16531 whole entry): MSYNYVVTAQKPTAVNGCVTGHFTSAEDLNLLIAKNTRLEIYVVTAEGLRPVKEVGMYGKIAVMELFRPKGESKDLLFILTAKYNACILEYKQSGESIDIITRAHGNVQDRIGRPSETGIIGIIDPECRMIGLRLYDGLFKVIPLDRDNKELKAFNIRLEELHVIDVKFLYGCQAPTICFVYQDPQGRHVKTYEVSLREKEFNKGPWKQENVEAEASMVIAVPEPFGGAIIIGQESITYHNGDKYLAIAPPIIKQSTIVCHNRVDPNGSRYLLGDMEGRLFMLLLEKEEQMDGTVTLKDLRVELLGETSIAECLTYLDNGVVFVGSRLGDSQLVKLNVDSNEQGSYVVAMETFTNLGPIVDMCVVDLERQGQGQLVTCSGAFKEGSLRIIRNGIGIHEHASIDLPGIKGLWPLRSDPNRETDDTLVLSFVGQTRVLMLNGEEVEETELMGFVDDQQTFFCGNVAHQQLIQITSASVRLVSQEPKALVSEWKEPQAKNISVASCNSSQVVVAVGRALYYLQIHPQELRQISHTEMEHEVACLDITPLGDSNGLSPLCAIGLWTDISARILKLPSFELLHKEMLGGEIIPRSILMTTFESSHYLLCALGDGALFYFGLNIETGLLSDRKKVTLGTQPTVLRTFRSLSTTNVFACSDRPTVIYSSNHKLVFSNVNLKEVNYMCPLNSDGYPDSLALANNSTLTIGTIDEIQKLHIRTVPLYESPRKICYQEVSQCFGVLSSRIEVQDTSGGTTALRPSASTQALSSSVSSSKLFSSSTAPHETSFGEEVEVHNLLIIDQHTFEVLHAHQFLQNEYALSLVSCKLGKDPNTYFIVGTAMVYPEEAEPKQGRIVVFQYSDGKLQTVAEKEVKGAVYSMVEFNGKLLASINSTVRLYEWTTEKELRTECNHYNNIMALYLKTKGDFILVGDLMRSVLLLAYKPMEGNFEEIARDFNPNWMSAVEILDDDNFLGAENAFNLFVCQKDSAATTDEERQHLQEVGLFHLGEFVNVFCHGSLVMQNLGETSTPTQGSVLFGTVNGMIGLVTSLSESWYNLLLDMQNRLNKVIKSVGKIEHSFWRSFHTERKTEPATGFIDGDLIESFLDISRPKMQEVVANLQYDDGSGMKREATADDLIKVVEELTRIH
T1 sequence (O75909 whole entry partner): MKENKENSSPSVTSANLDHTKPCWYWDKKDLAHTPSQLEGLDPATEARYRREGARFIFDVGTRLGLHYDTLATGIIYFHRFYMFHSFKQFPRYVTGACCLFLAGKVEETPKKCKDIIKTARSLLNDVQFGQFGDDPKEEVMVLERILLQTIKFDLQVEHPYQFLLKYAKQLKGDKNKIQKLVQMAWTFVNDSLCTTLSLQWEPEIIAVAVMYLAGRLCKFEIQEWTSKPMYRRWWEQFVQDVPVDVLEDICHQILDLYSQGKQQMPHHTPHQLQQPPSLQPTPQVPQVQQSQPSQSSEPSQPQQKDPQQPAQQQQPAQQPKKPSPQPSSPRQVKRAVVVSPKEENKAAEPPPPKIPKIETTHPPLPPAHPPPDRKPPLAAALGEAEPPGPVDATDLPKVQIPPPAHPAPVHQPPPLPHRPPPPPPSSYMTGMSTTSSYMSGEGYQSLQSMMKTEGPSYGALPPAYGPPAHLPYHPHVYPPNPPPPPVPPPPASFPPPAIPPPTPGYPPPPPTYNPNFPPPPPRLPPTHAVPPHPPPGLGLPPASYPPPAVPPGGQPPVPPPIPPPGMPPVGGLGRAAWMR
As to the kind of experiment: NanoBRET fold-change assay (HaloTag_CDK12 / NanoLuc_DDB1 in HEK293T). The format is cell-based. Conditions: 10 μM compound, 10 minutes. In outline:
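HEK293T cells transiently co-transfected with HaloTag_CDK12 and NanoLuc_DDB1, labelled overnight with 100 nM HaloTag 618 ligand (DMSO no-ligand control), then treated with compound at 10 μM final for 10 min at room temperature. BRET read as 460 nm donor and 647 nm acceptor emission after Nano-Glo substrate; reported as fold change.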

For data set [3], the target named is T1, DDB1-CDK12/Cyclin K ternary complex. As to the kind of experiment: NanoBRET EC50 assay (HaloTag_CDK12 / NanoLuc_DDB1 in HEK293T). The data set is classed as cell-based. In outline: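 DDB1–CDK12/Cyclin K recruitment measured by NanoBRET in HEK293T transiently co-transfected with HaloTag_CDK12 and NanoLuc_DDB1 and labelled overnight with 100 nM HaloTag 618 ligand. Compounds titrated 10-point, 1:4 from 20 μM, 10 min at room temperature. Donor 460 nm and acceptor 647 nm emission read after Nano-Glo substrate.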

For a further data set, the system named is KBM7 cells (wild-type). As to the kind of experiment: KBM7 CTG EC50 assay (UBE2M wild-type). The format is cell-based, human. In a few lines:
(§4)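 Wild-type KBM7 cells, or KBM7 cells with a hypomorphic UBE2M mutation that impairs Cullin-RING ligase activity, were treated for 72 h with compounds in a 10-point, 1:4 titration (0 to 20 μM). Viability was read by CellTiter-Glo 2.0 luminescence.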

Data set [4] concerns KBM7 cells harboring a hypomorphic UBE2M mutation. As to the kind of experiment: KBM7 CTG EC50 assay (UBE2M knock-out). Conditions: Homo sapiens, KBM-7; 72 h incubation, CellTiter-Glo; read-out: KBM7 CTG EC50 (UBE2M knock-out) Activity Class. The data set is classed as cell-based. In a few lines: as §4
In the next data set the test system is CCNK. As to the kind of experiment: NanoLuc-CCNK degradation assay (HEK293T_Nluc_CCNK-tagged cells). The format is cell-based. Conditions: 4 h incubation, HEK293T_Nluc_CCNK-tagged cells; read-out: NanoLuc-CCNK degradation DC50 Activity Class. In outline: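 HEK293T cells with nanoluciferase knocked in at the N-terminus of endogenous CCNK (CRISPR) exposed to a 10-point titration (0 to 10 μM, 1:4) in Opti-MEM I + 4% FBS for 4 h. Nano-Glo substrate then added and luminescence read as a measure of Cyclin K abundance.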

Data set [5] deals with T2, Cdk12 (696-1,082)/CycK (1-267) protein complex (Homo sapiens, UniProt Q9NYV4).
T2 construct: Cdk12 (696-1,082)/CycK (1-267) protein complex
T2 sequence (Q9NYV4 696-1082 limits assumed): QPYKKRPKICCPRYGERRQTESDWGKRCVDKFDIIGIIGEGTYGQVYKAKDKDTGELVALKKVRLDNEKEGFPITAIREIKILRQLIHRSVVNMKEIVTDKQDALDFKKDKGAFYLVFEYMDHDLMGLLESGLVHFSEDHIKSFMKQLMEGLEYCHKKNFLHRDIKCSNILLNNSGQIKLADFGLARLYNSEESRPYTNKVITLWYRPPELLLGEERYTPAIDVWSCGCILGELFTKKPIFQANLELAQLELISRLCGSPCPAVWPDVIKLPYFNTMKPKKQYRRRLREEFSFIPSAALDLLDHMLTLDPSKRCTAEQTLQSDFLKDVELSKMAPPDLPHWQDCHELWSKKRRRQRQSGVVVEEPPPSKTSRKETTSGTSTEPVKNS
T2 sequence (O75909 1-267 partner limits assumed): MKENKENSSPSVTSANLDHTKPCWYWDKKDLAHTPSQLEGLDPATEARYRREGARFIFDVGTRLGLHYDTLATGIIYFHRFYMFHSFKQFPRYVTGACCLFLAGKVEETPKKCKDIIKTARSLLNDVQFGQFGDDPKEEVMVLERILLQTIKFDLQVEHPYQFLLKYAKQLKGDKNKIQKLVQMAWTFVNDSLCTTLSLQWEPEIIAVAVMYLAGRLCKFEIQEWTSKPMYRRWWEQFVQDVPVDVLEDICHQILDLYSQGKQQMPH
As to the kind of experiment: Cdk12 [high ATP] in vitro kinase activity assay. The data set is classed as biochemical. Conditions: physiological ATP concentrations (1 mM ATP), 50 μM compound. How it is done: This assay on recombinant proteins allows assessment of the extent of inhibition of CDK12 kinase activity of compounds. The added benefit of Cyclin K degradation as opposed to CDK12 inhibition alone can thereby be estimated. The observed disconnect between CDK12 inhibition and efficacy in the KBM7 cell viability assay supports an important contribution of Cyclin K degradation to the therapeutic effect.
Kinase reactions (50 μl) were carried out with recombinant highly purified proteins. Cdk12 (696-1,082)/CycK (1-267) protein complex (0.5 μM) was preincubated with 50 μM of compound and vehicle control (DMSO) for 10 minutes at room temperature in kinase buffer (40 mM Tris pH 7.5, 20 mM MgCl2, 0.1 mg/ml BSA) prior the addition of pS7-CTD substrate peptide (Ac-YSPTSP-pS-YSPTSP-pS-YSPTSP-pS-Y-PEG2-RR-amide, 95% purity, Biosyntan, Germany) (100 μM) and further 10 min incubation at room temperature. Cold ATP (to a final concentration of 1 mM) was added, and the reaction mixture was incubated for 60 min at 30° C. at 500 rpm. Kinase activity was determined using the ADP-Glo™ Kinase Assay (Promega). The luminescence signal was measured using the multimode plate reader EnVision 2105 (Perkin Elmer).
Uniprot protein codes: (Cdk12) Q9NYV4, (CycK) 075909

The next data set relates to Cyclin K. Conditions: cited from earlier work.

Chain of Nanoluc_DDB1 (N-terminal Nanoluc luciferase, G4S linker, DDB1 (FL)) (Q16531 other isoform, or with tags, fused parts or gaps): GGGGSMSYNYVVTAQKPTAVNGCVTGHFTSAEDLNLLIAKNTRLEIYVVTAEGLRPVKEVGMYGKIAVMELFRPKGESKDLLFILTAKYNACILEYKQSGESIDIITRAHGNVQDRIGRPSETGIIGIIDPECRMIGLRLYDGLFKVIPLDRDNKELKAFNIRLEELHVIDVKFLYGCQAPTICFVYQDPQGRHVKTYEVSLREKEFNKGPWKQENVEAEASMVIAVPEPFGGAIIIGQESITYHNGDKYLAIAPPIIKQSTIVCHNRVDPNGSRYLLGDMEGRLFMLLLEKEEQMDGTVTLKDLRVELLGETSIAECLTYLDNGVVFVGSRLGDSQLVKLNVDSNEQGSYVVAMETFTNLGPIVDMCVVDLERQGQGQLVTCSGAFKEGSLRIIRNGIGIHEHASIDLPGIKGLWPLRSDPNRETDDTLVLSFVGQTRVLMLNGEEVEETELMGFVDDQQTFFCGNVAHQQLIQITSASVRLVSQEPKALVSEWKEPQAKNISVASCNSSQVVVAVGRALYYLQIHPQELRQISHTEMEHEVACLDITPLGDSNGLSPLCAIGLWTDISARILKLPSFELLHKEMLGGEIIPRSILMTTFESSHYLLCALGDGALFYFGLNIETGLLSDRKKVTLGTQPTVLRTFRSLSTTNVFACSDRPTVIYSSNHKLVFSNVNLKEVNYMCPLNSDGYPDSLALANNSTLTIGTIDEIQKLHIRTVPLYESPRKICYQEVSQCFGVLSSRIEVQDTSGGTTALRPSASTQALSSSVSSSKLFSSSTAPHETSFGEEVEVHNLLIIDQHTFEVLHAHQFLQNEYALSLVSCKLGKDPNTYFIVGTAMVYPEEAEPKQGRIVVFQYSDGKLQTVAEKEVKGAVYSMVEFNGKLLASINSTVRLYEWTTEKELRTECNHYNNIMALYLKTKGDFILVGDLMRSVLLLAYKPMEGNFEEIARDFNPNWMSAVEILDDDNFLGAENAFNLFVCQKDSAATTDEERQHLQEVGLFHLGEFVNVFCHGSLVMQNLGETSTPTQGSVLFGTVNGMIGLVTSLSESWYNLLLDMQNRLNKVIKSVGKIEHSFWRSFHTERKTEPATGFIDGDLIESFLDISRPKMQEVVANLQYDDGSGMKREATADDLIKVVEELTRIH

For the compound “HaloTag_CDK12 (N-terminal HaloTag, G4S linker, CDK12 (713-1052)) (from UniProt Q9NYV4 713-1052) (HEK293T cells)”, in data set [1], the NanoBRET fold increase fell in the range of 3 to 4 fold.
As to `Cc1cnc(NC(=O)C2CC(=O)N(c3cccc(Cl)c3Cl)C2)s1` (centres unmarked) [Example Z13], the CC50 was 1.29 µM with KBM7_WT cells, 6.99 µM with UBE2M_MUT KBM7 cells and 5.68 µM in the data set on CUL4B_MUT KBM7 cells.
The matching figures for `O=C1CC(CNc2ncc(Cl)cn2)CN1CCc1ccccc1` (centres unmarked) [Example Z10]: 7.82 µM, greater than 10 µM and greater than 10 µM.
For `O=C(Nc1nc2c(s1)CCCC2)C1CCCN1C(=O)c1ccccc1` (centres unmarked) [Example Z3], the CC50 with KBM7_WT cells was 11.8 µM; in the data set with UBE2M_MUT KBM7 cells, greater than 10 µM; with CUL4B_MUT KBM7 cells it was greater than 10 µM.
Consider `Cc1ccc(NC(=O)C2CC(=O)N(c3cccc(Cl)c3)C2)nc1` (centres unmarked) [Example Z9], for which the values for the CC50 in the data set with KBM7_WT cells, in the data set with UBE2M_MUT KBM7 cells and with CUL4B_MUT KBM7 cells were 2.35 µM, greater than 10 µM and greater than 10 µM, respectively.
On to `COc1ccc2cc(C(C)C(=O)Nc3ncc(C)s3)ccc2c1` (centres unmarked) [Example Z2], for which the CC50 in the data set with KBM7_WT cells was 1.35 µM; in the data set on UBE2M_MUT KBM7 cells, greater than 10 µM; in the data set with CUL4B_MUT KBM7 cells it was greater than 10 µM.
For the compound `COc1ccc(C)cc1N1CC(C(=O)Nc2nc3ccccc3[nH]2)CC1=O` (centres unmarked) [Example Z11], the values for the CC50 in the data set on KBM7_WT cells, in the data set on UBE2M_MUT KBM7 cells and in the data set with CUL4B_MUT KBM7 cells were 0.92 µM, 2.75 µM and 2 µM, respectively.
`O=C(NCCCNc1ccc(C(F)(F)F)cn1)c1ccccc1` [Example Z14]: the CC50 with KBM7_WT cells is 4.69 µM; in the data set on UBE2M_MUT KBM7 cells, greater than 10 µM; in the data set with CUL4B_MUT KBM7 cells, greater than 10 µM.
Consider `Cc1cn2nc(NCCNc3ccc(C#N)cn3)sc2n1` [Example Z5], for which the figures for the CC50 with KBM7_WT cells, in the data set on UBE2M_MUT KBM7 cells and with CUL4B_MUT KBM7 cells were 3.75 µM, greater than 10 µM and greater than 10 µM, respectively.
Usually EC50 stands for the midpoint of the concentration-response curve. One may read the DC50 as the midpoint of the concentration-degradation curve. On to `O=C(Cc1cnc2ccccc2c1)Nc1ncc(C(F)(F)F)s1` [Example 3-36, 2-(quinolin-3-yl)-N-(5-(trifluoromethyl)thiazol-2-yl)acetamide], for which, in [2], the “NanoBRET fold-change Activity Class” value is “C (2-3 fold increase)”. The “activity in NanoBRET assay (ternary complex formation), in words” value in data set [3] is recorded as “good activity”. In addition, in data set [3] (10-point titration from 20 μM, HEK293T), the “NanoBRET EC50 Activity Class” value is listed as “B (0.50 μM≤EC50≤0.25 μM)”. Further, the 50% effective concentration (EC50) in the data set with KBM7 cells (wild-type) (Homo sapiens, KBM-7, 72 h incubation, CellTiter-Glo, read-out: KBM7 CTG EC50 (UBE2M wild-type) Activity Class) was no more than 0.25 µM; in [4] it was no more than 0.25 µM. For the same compound, the “activity in KBM7 cytotoxicity assay, in words” value in the data set on KBM7 cells (wild-type) (KBM7) is on record as “extremely potent activity”. The half-maximal degradation concentration (DC50) in the data set with CCNK was no more than 0.1 µM. Besides, the “Cdk12 inhibition, in words” value in [5] is given as “weak Cdk12 inhibition”.
Consider `Cc1ccc2c(CC(=O)Nc3nccs3)coc2c1C` [Example Z1], for which the CC50 is 7.12 µM with KBM7_WT cells, greater than 10 µM with UBE2M_MUT KBM7 cells and greater than 10 µM with CUL4B_MUT KBM7 cells.
As for `CC[C@H](CO)Nc1nc(NCc2ccc(-c3ccccn3)cc2)c2ncn(C(C)C)c2n1` [CR8], the “Cyclin K degradation, in words” value in the data set on Cyclin K is on record as “cause Cyclin K degradation”.
Take `CN(C)C/C=C/C(=O)Nc1ccc(C(=O)N2CCC[C@@H](Nc3ncc(Cl)c(-c4c[nH]c5ccccc45)n3)C2)cc1` [THZ-531]: the “Cyclin K degradation, in words” value in the data set on Cyclin K is listed as “did not cause cyclin K degradation”.
Consider `O=C(CCn1cnc2ccccc2c1=O)Nc1ccc(Br)cn1` [Example Z7], for which the figures for the CC50 in the data set with KBM7_WT cells, in the data set on UBE2M_MUT KBM7 cells and with CUL4B_MUT KBM7 cells were 1.81 µM, greater than 10 µM and greater than 10 µM, respectively.
